The SangsterLogP compilation

Experiment: method code SF, from Hansch, C. & Leo, A. (1987). Log P database [Dataset]. Pomona College Medicinal Chemistry Project.

**Q.** For `COP(=O)(OC)Oc1ccccc1`, which logP is on record?
**A.** 1.22

**Q.** Which logP does the source give for `COc1cc(OC)cc(OC(=O)CNC(=O)c2ccccc2)c1` here?
**A.** 2.69

**Q.** With `Cc1cccc(C=C(C(N)=O)C(N)=O)c1` as the compound, how does the logP read?
**A.** 0.4

**Q.** Which logP does the source give for `Cc1ccccc1OC(=O)N(C)C` here?
**A.** 1.86

**Q.** With `CCOC(=O)NC1=C(N2CC2)C(=O)C(NC(=O)OCC)=C(N2CC2)C1=O` as the compound, how does the logP read?
**A.** 0.05

**Q.** With `O=C1CN=C(c2ccc[nH]2)c2cc(Cl)ccc2N1` as the compound, how does the logP read?
**A.** 2.59

**Q.** With `O=C(Nc1ccccc1)c1cccnc1` as the compound, how does the logP read?
**A.** 1.73

**Q.** Which logP does the source give for `CC(C)c1ccc(C(N)=O)cc1` here?
**A.** 2.14

**Q.** With `COC(=O)c1ccccc1C` as the compound, how does the logP read?
**A.** 2.75

**Q.** With `c1ccc(-c2ccc(C(c3ccccc3)n3ccnc3)cc2)cc1` (stereo not drawn) as the compound, how does the logP read?
**A.** 4.77

**Q.** For `Nc1cc(C(F)(F)F)cc(C(F)(F)F)c1`, which logP is on record?
**A.** 3.57

**Q.** For `Cc1ccc(C(O)c2ccccc2)cc1` (stereo not drawn), which logP is on record?
**A.** 3.13

**Q.** Which logP does the source give for `CCc1ccc(NC(C)=O)cc1` here?
**A.** 2.11

**Q.** Which logP does the source give for `CCCCSC(C)(C)C(N)=O` here?
**A.** 1.81

**Q.** For `CCOC(=O)C(=Cc1cccc([N+](=O)[O-])c1)C(=O)OCC`, which logP is on record?
**A.** 2.71

**Q.** With `O=C(O)COc1ccccc1F` as the compound, how does the logD (pH 1.0) read?
**A.** 1.39

**Q.** Which logP does the source give for `CCCCCc1cn[nH]c1` here?
**A.** 2.96

**Q.** With `CNC(=O)NC` as the compound, how does the logP read?
**A.** -0.96

**Q.** Which logP does the source give for `NC(=O)NCc1ccccc1` here?
**A.** 0.73

**Q.** With `Cc1cc(C(=O)NNCc2ccccc2)no1` as the compound, how does the logD (pH 7.4) read?
**A.** 1.49

**Q.** For `C1=CCOC1`, which logP is on record?
**A.** 0.46

**Q.** For `CCOc1ccccc1NC(C)=O`, which logP is on record?
**A.** 1.49

**Q.** With `O=C(COc1ccccc1)Nc1ccccc1` as the compound, how does the logP read?
**A.** 2.73

**Q.** For `CC1(C)N=C(N)N=C(N)N1c1ccccc1`, which logD (pH 13.0) is on record?
**A.** 0.28

**Q.** For `O=NN(CCCl)C(=O)NC12CC3CC(CC(C3)C1)C2`, which logP is on record?
**A.** 3.56

**Q.** For `c1ccc(-c2nc3ccccc3s2)cc1`, which logP is on record?
**A.** 4.26

**Q.** For `CCOC(=O)Cn1ccnc1C=Cc1ccc([N+](=O)[O-])o1`, which logP is on record?
**A.** 1.27

**Q.** Which logP does the source give for `CCC1(c2ccccc2)NC(=O)NC1=O` (stereo not drawn) here?
**A.** 1.53

**Q.** Which logP does the source give for `O=[N+]([O-])CCO` here?
**A.** -0.42

**Q.** With `FC(F)(F)Sc1ccccc1` as the compound, how does the logP read?
**A.** 3.57

**Q.** With `CC(=O)N(c1ccccc1)c1ccccc1` as the compound, how does the logP read?
**A.** 2.05

**Q.** For `O=c1cc[nH]c2ccccc12`, which logP is on record?
**A.** 0.58

**Q.** For `CN(c1ccccc1)S(C)(=O)=O`, which logP is on record?
**A.** 1.02

**Q.** Which logP does the source give for `O=C(O)COc1ccc(F)c(I)c1` here?
**A.** 2.42

**Q.** With `CC(=O)Oc1ccc(C(N)=O)cc1` as the compound, how does the logD (pH 7.0) read?
**A.** 0.27

**Q.** Which logD (pH 7.4) does the source give for `CC(=O)OC[C@]12CCC(C)=C[C@H]1O[C@@H]1[C@H](O)[C@@H](OC(C)=O)[C@@]2(C)[C@]12CO2` here?
**A.** 0.91

**Q.** Which logP does the source give for `C=CCOc1ccccc1` here?
**A.** 2.94

**Q.** For `CC(=O)OCC(=O)[C@@]12OC(C)(C)O[C@@H]1C[C@H]1[C@@H]3C[C@H](F)C4=CC(=O)C=C[C@]4(C)[C@@]3(F)[C@@H](O)C[C@@]12C`, which logP is on record?
**A.** 3.19

**Q.** For `CCOC(=O)C(=Cc1ccc(Br)cc1)C(=O)OCC`, which logP is on record?
**A.** 4.02

**Q.** Which logP does the source give for `CC(C)(C)N` here?
**A.** 0.4

**Q.** For `C#CCO`, which logP is on record?
**A.** -0.38

**Q.** With `CCC(O)CC` as the compound, how does the logP read?
**A.** 1.21

**Q.** For `CCCCN(C)C`, which logP is on record?
**A.** 1.7

**Q.** With `CNC(=O)Oc1cccc(Cl)c1Cl` as the compound, how does the logP read?
**A.** 2.48

**Q.** For `Nc1cccc2nc3ccccc3cc12`, which logP is on record?
**A.** 2.47

**Q.** With `COc1cc(C(=O)C=CN2CC=CC2)cc(OC)c1OC` as the compound, how does the logP read?
**A.** 1.77

**Q.** For `CCOC(=O)C(=Cc1ccccc1[N+](=O)[O-])C(=O)OCC`, which logP is on record?
**A.** 2.54

**Q.** For `O=c1[nH]ncc2ccccc12`, which logP is on record?
**A.** 0.75

**Q.** For `c1ccc(-n2cnnn2)cc1`, which logP is on record?
**A.** 1.09

**Q.** With `CCOP(=S)(OCC)Oc1ccc(SC)cc1Cl` as the compound, how does the logP read?
**A.** 4.4

**Q.** With `O=c1cnn([C@@H]2O[C@H](CO)[C@@H](O)[C@H]2O)c(=O)[nH]1` as the compound, how does the logP read?
**A.** -2.14

**Q.** Which logD (pH 7.4) does the source give for `CN(C)/N=N/c1ccccc1C(N)=O` here?
**A.** 1.73

**Q.** Which logD (pH 1.0) does the source give for `NS(=O)(=O)c1ccc(C(=O)O)cc1` here?
**A.** 0.5

**Q.** Which logP does the source give for `O=[N+]([O-])c1ccc(C=Cc2nccn2Cc2ccccc2)o1` here?
**A.** 1.55

**Q.** With `CCOC(N)=O` as the compound, how does the logP read?
**A.** -0.15

**Q.** For `CCCC1CC(C(=O)NC(C(C)Cl)C2OC(SCC)C(O)C(O)C2O)N(CC)C1` (stereo not drawn), which logD (pH 12.0) is on record?
**A.** 3.18

**Q.** With `CC(C)c1ccccc1OCC(=O)O` as the compound, how does the logP read?
**A.** 2.84

**Q.** Which logP does the source give for `CN(Cc1ccccc1)/N=N/c1ccc(C#N)cc1` here?
**A.** 3.82

**Q.** For `CC1CCCN(N=O)C1=O` (stereo not drawn), which logP is on record?
**A.** -0.66

**Q.** With `c1ccc2c(c1)CCc1ccccc1NC2` as the compound, how does the logP read?
**A.** 2.82

**Q.** With `CN(C)/N=N/c1ccc(C#N)cc1` as the compound, how does the logP read?
**A.** 2.35

**Q.** For `CC(=O)Oc1cccc(Cl)c1`, which logP is on record?
**A.** 2.32

**Q.** Which logP does the source give for `CCOC(=O)CCc1ccccc1` here?
**A.** 2.73

**Q.** For `COCCN(N=Nc1[nH]cnc1C(N)=O)C(C)(C)C`, which logD (pH 4.2) is on record?
**A.** 1.14

**Q.** Which logP does the source give for `ClC(Cl)=Nc1ccccc1` here?
**A.** 2.54

**Q.** Which logP does the source give for `CCOC(=O)CNCCCCCSc1c2[nH]cnc2nc[n+]1[O-]` here?
**A.** 0.87

**Q.** Which logP does the source give for `NC(=O)Nc1cnc2ccccc2n1` here?
**A.** 1.3

**Q.** Which logP does the source give for `CN(C(=O)CCBr)c1ccc(S(=O)(=O)N(C)C)cc1` here?
**A.** 1.13

**Q.** Which logP does the source give for `O=C(O)CCS` here?
**A.** 0.43

**Q.** For `O=[N+]([O-])c1ccc(CCO)cc1`, which logP is on record?
**A.** 1.12

**Q.** Which logP does the source give for `c1ccc(-c2ccc3ccccc3n2)cc1` here?
**A.** 3.9

**Q.** For `CN(C)C(=S)NCc1ccccc1`, which logP is on record?
**A.** 1.59

**Q.** For `COc1cccc2cccnc12`, which logP is on record?
**A.** 1.84

**Q.** Which logP does the source give for `CCOC(=O)c1cccnc1` here?
**A.** 1.34

**Q.** Which logP does the source give for `COc1cc(Cl)cc(Cl)c1` here?
**A.** 3.74

**Q.** Which logD (pH 12.0) does the source give for `CCC[C@@H]1C[C@@H](C(=O)N[C@@H]([C@H]2O[C@H](SCC)[C@H](O)[C@@H](O)[C@H]2O)[C@@H](C)O)N(CC)C1` here?
**A.** 1.91

**Q.** For `N#Cc1cccc(OC(=O)CNC(=O)c2ccccc2)c1`, which logP is on record?
**A.** 2.11

**Q.** With `C=CCN(C)/N=N/c1ccc(C(N)=O)cc1` as the compound, how does the logP read?
**A.** 2.09
